# Measurements: US11738053B2, “Methods and compositions for treating chronic granulomatous disease” (THE BOARD OF REGENTS OF THE UNIVERSITY OF TEXAS SYSTEM, priority 2016, dated 2023)
# Key:
# [1] = without irradiation and chemotherapy; cited from earlier work
# [2] = tested on: NADPH oxidase in K562 cells; assay: Superoxide generation (Diogenes luminescence) in K562 cells reconstituted with gp91^phox vectors; assay type: cell-based; settings: K562 cells stably expressing human p47^phox and p67^phox, transfected 48 h before measurement
# Method: FIG. 15. The gp91^phox (T196F) mutant is superactive compared with wild-type. A cellular luminescence enhancement system for superoxide detection (Diogenes, National Diagnostics) was used. Human p47^phox and p67^phox stably expressing K562 cells were transfected with either wild-type human gp91^phox vector, gp91^phox (T196F) vector, or empty vector pcDNA 3.1 48 h before measurement. K562 cells constitutively express p22^phox and Rac. The experiment shown is representative of 3 studies.
# In a structure/function study of gp91^phox, a super-active variant of gp91^phox (T196F) was generated in which residue 196 is mutated from threonine to phenylalanine (FIG. 15). PMA-stimulated superoxide generation was 7-fold greater when gp91^phox(T196F), versus wild-type gp91^phox, was used to reconstitute the NADPH oxidase in K562 cells. The mutant construct was made by Quik-Change™ site-directed mutagenesis of gp91^phox using sense primer […] (SEQ ID NO:1) and antisense primer […] (SEQ ID NO:2). The construct was sequenced and subcloned into fresh pcDNA3.1 (−) using NheI and XhoI.
Molecule,effectiveness as conditioning regimen [1],PMA-stimulated superoxide generation relative to wild-type gp91^phox [2] [fold]
c1cc(CN2CCCNCCNCCCNCC2)ccc1CN1CCCNCCNCCCNCC1 [AMD3100],not to be sufficiently effective,–
"gp91^phox(T196F): super-active variant of gp91^phox in which residue 196 is mutated from threonine to phenylalanine (protein, UniProt P04839 2-570, looked up, variant T196F) NADPH oxidase 2: GNWAVNEGLSIFVILVWLGLNVFLFVWYYRVYDIPPKFFYTRKLLGSALALARAPAACLNFNCMLILLPVCRNLLSFLRGSSACCSTRVRRQLDRNLTFHKMVAWMIALHSAIHTIAHLFNVEWCVNARVNNSDPYSVALSELGDRQNESYLNFARKRIKNPEGGLYLAVTLLAGITGVVITLCLILIITSSTKFIRRSYFEVFWYTHHLFVIFFIGLAIHGAERIVRGQTAESLAVHNITVCEQKISEWGKIKECPIPQFAGNPPMTWKWIVGPMFLYLCERLVRFWRSQQKVVITKVVTHPFKTIELQMKKKGFKMEVGQYIFVKCPKVSKLEWHPFTLTSAPEEDFFSIHIRIVGDWTEGLFNACGCDKQEFQDAWKLPKIAVDGPFGTASEDVFSYEVVMLVGAGIGVTPFASILKSVWYKYCNNATNLKLKKIYFYWLCRDTHAFEWFADLLQLLESQMQERNNAGFLSYNIYLTGWDESQANHFAVHHDEEKDVITGLKQKTLYGRPNWDNEFKTIASQHPNTRIGVFLCGPEALAETLSKQSISNSESGPRGVHFIFNKENF",–,7
